From article PMC7190830, “Neuromedin U signaling regulates retrieval of learned salt avoidance in a C. elegans gustatory circuit” (Nature Communications, 2020)
Values joined by “and” are separate entries in the source; they are usually repeats but may differ in a detail not shown here. Equal entries are not always repeated. Where two headings read alike, the source gives them in different places. Each block holds one molecule with its values, some of them ahead of it. No end group written: not given here.

How the values were obtained:
C. elegans = experiment: Optogenetic silencing of ASG during conditioning or navigation of a 0-50 mM NaCl gradient; type: in vivo; conditions: ATR, single replicates
Excerpt: From left to right n = 51, 59, 43, 44 animals per condition. […] (bottom panel). Scale bar, 20 µm. f Optogenetic silencing of ASG. Individual worms are illuminated with yellow–green light for silencing CAPA-1 neurons during conditioning (acquisition phase) or during the NaCl chemotaxis assay when worms are navigating a linear NaCl gradient (retrieval phase) (see Methods for details). Arch requires supplementation of the cofactor all-trans retinal (ATR) to the worm culture. Transgenic C. elegans not fed ATR-supplemented food serve as a negative control. After conditioning, worms are put in the middle of a chemotaxis plate with a linear NaCl gradient (0–50 mM) and kept in the field-of-view using an automated xy-stage. […] Corresponding biased random walk and klinotaxis indices shown in Supplementary Fig. 10a, b. The time interval for statistical comparison was reduced to 5 min to accommodate the small plate format. g, h From left to right n = 10, 12, 14, 14, 12, 12, 14, 11 animals per condition. Shaded regions on a and g represent S.E.M. while black bars indicate the time interval for calculating the mean gradient position and behavioral indices. Significances determined by two-way ANOVA with Tukey’s HSD post hoc test. n.s. not significant; *p ≤ 0.05; **p ≤ 0.01; ***p ≤ 0.001. Boxplots show medians, 25th and 75th percentiles as box limits. The whiskers extend to the most extreme data points not considered as outlier.
Transgenic worms expressing the outward-directed proton pump Arch in ASG were cultured at 25 °C on culture plates seeded with sufficient OP50 E. coli. One day before the assay, transgenic worms were transferred to OP50 culture plates to which all-trans retinal (ATR, Sigma Aldrich) has been added (300 µM final concentration in fresh OP50 liquid culture). This cofactor is needed for Arch activity, and allows transgenic worms transferred to culture plates without ATR to serve as negative control. A 0 to 50 mM linear gradient was generated in a 55 mm Petri plate. First, 15 mL buffered CTX agar supplemented with 50 mM NaCl was poured in a 55 mm diameter Petri dish elevated to one side. An additional 15.5 mL buffered CTX agar without NaCl was poured on top of the first triangular wedge once it solidified. NaCl was allowed to diffuse at least 24 h prior the assay. Individual worms were washed for 15 min in a small volume of CTX buffer with or without 100 mM NaCl (NaCl-conditioning or mock-conditioning). After conditioning the worm was transferred to the center of the 0 to 50 mM NaCl gradient plate, mounted on a Zeiss AxioObserver Z1 microscope. The animal was then allowed to navigate the plate for 10 min while an automated xy-stage kept it in the field-of-view. […] Each animal’s path was reconstructed based on the recorded low-resolution video-stream and the logged stage positions. The behavior was then segmented and indices reflecting chemotaxis behavior were calculated as described above.
Supplementary Fig. 10. Behavioral effects of silencing CAPA-1 neurons (related to Fig. 7) The inhibitory opsin Arch is expressed in ASG under control of the capa-1 promoter. Individual transgenic worms are illuminated with yellow-green light for ASG silencing while being conditioned, or when they are navigating an agar plates with a 0 to 50 mM NaCl linear gradient (a-b) or no gradient (c-d). Arch requires the cofactor all-trans retinal (ATR) to be supplemented to the worm culture.
Transgenic C. elegans not fed ATR-supplemented food serve as a negative control. See Methods for details. (a) Biased random walk and (b) klinotaxis indices for mock- and NaCl-conditioned animals navigating a 0 to 50 mM NaCl gradient. (a-b) From left to right n = 10, 12, 14, 14, 12, 12, 14, 11 animals per condition. (c) Mean speed of individual worms and (d) the fraction of time in each behavioral state when worms are navigating a plate without NaCl. From left to right n = 7, 7, 7, 7, 7, 7, 5, 7 animals per

NMUR-1 = biological target: T1, NMUR-1 (Caenorhabditis elegans, UniProt Q18701); experiment: Luminescence-based (aequorin) calcium mobilization assay for GPCR activation, NMUR-1 expressed in CHO cells; type: cell-based; conditions: calcium response, aequorin luminescence 496 nm, 30 s, CHO K1 cells stably overexpressing apo-aequorin and human Gα16, transiently transfected nmur-1/pcDNA3.1, 0.1 nM to 100 µM, HPLC-purified peptides, read-out: EC50 (half maximal effective concentration) to activate NMUR-1
T1 sequence (Q18701 1-400): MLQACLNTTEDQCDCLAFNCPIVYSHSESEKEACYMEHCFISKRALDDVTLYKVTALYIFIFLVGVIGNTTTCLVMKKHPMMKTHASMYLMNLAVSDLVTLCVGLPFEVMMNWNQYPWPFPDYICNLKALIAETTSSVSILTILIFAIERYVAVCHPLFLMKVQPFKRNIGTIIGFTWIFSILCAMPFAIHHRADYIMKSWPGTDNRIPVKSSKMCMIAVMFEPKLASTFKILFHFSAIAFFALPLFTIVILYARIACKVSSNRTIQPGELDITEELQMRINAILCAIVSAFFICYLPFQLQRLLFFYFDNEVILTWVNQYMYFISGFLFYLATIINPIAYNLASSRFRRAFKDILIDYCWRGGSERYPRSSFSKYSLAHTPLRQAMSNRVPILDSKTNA
Excerpt: Cells transfected with an empty pcDNA3.1 vector are used as a control. Error bars show S.E.M. CAPA-1-1 n = 6; CAPA-1-2 n = 6; CAPA-1-3 n = 5 experimental repeats. c The […] encodes a neuropeptide precursor that harbors three predicted peptide sequences (CAPA-1-1, -2, and -3), which are flanked by mono- and dibasic cleaving sites. Black bars indicate the positions of deletions in […]-44 mutant alleles used in this study. d Sequence comparison of C. elegans CAPA-1 neuropeptides and NmU neuropeptides from H. sapiens, D. rerio, and D. melanogaster. Conserved C-terminal features are highlighted in black. Residues with similar physicochemical properties are colored gray.

[1] = NaCl-conditioned, Time Window Silencing: Navi - Retrieval
[2] = NaCl-conditioned, Time Window Silencing: Wash - conditioning
[3] = mock-conditioned, Time Window Silencing: Navi - Retrieval
[4] = mock-conditioned, Time Window Silencing: Wash - conditioning
[5] = CAPA-1-1 n = 6, CAPA-1-3 n = 5 experimental repeats

Molecule: CC1=C(/C=C/C(C)=C/C=C/C(C)=C/C=O)C(C)(C)CCC1 [ATR]
- Fraction of time in Pause (C. elegans; [1]): 0
- Fraction of time in Run (C. elegans; [1]): 0.741 and 0.8212 and 0.8921 and 0.8348 and 0.9414 and 0.927 and 0.8623
- Fraction of time in Turn (C. elegans; [1]): 0.1151 and 0.03803 and 0.0668 and 0.04464 and 0.02467 and 0.01439
- Fraction of time in Pause (C. elegans; [2]): 0
- Fraction of time in Pirouette (C. elegans; [2]): 0.1562 and 0.1901 and 0.02158 and 0.1641 and 0.1069 and 0 and 0.05344
- Fraction of time in Run (C. elegans; [2]): 0.7451 and 0.7688 and 0.9609 and 0.8359 and 0.888 and 0.9702 and 0.8828
- Fraction of time in Turn (C. elegans; [2]): 0.09866 and 0.04111 and 0.01747 and 0 and 0.005139 and 0.0298 and 0.06372
- Fraction of time in Pirouette (C. elegans; NaCl, Time Window Silencing: Navi - Retrieval): 0.1439 and 0.1408 and 0.04111 and 0.1205 and 0.03392 and 0.0483 and 0.1233
- Fraction of time in Pause (C. elegans; [3]): 0
- Fraction of time in Pirouette (C. elegans; [3]): 0.1326 and 0.1912 and 0.112 and 0.1439 and 0.1819 and 0.2179 and 0.1771
- Fraction of time in Run (C. elegans; [3]): 0.7564 and 0.7081 and 0.7595 and 0.8171 and 0.6516 and 0.7513 and 0.7264
- Fraction of time in Turn (C. elegans; [3]): 0.111 and 0.1007 and 0.1285 and 0.03905 and 0.1665 and 0.03083 and 0.0965
- Fraction of time in Pause (C. elegans; [4]): 0
- Fraction of time in Pirouette (C. elegans; [4]): 0.3217 and 0.03289 and 0 and 0.6616 and 0.1079 and 0.1788 and 0.04317
- Fraction of time in Run (C. elegans; [4]): 0.6208 and 0.8756 and 0.9106 and 0.3384 and 0.8016 and 0.8068 and 0.9085
- Fraction of time in Turn (C. elegans; [4]): 0.05755 and 0.09147 and 0.08941 and 0 and 0.09044 and 0.01439 and 0.0483

- EC50 (NMUR-1; [5]): 142 nM
Molecule: AFFYTPRI-NH2 [CAPA-1-3]

- EC50 (NMUR-1; [5]): 6 nM
Molecule: APHPSSALLVPYPRV-NH2 [CAPA-1-1]

- EC50 (NMUR-1; CAPA-1-2 n = 6 experimental repeats): 8000 nM
Molecule: LYMARV-NH2 [CAPA-1-2]
